Columns and labels:
[1] = test system: beet armyworm (BAW; Spodoptera exigua: Lepidoptera); experiment: 96-well microtiter plate-based high throughput (HTS) diet bioassay on beet armyworm (BAW HTS); format: in vivo; details: for BAW HTS: BAW eggs, 12 μg test compound per well, mortality at 6 d post-treatment, mortality class
In short: (§1)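 HTS: eggs on diet topped with 12 μg cpd/well; dark, 29° C; mortality day 6; mean of 6 reps. Tray: 3–5 L2 larvae/well; diet dosed 50 μg/cm^2; 25° C, 14:10 L:D; 6 d; mean of 8 wells. Scored as ≥50% mortality or not.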

[2] = test system: beet armyworm (BAW; Spodoptera exigua: Lepidoptera); experiment: 128-well diet tray assay on beet armyworm (BAW 50); format: in vivo; details: for BAW 50 ug/cm2: 128-well diet tray assay, 50 μg/cm^2 of test compound on diet, second instar BAW larvae, mortality class
In short: as §1

[3] = 96-well microtiter plate HTS diet assay

CO[C@@H]1[C@@H](OC)[C@H](C)O[C@@H](OC(=O)Nc2ccc(-c3cc(C(F)(F)C(F)(F)C(F)(F)F)nc(-c4ccc(C(F)(F)F)cc4)n3)cc2)[C@@H]1OC [Compound 233]
BAW HTS ([1]; 96-well HTS diet assay): B (either (1) the compound was tested and less than 50 percent mortality was observed or (2) the compound was not tested)
BAW HTS [1, 3]: B (either (1) the compound was tested and less than 50 percent mortality was observed or (2) the compound was not tested)
BAW 50 ug/cm2 [2]: A (the compound was tested and at least 50 percent mortality was observed)

CCOC(=O)C1C(c2ccc(/C=N/O[C@@H]3O[C@@H](C)[C@H](OC)[C@@H](OC)[C@H]3OC)cc2)=NN(c2ccc(OC(F)(F)F)cc2)C1C(=O)OCC (stereo partly shown) [Compound 53]
BAW HTS ([1]; 96-well HTS diet bioassay): A (the compound was tested and at least 50 percent mortality was observed)
BAW HTS [1, 3]: A (the compound was tested and at least 50 percent mortality was observed)
BAW 50 ug/cm2 [2]: A (the compound was tested and at least 50 percent mortality was observed)

COC1C(C)OC(ON=Cc2ccc(-c3ncn(-c4ccc(SC)cc4)n3)cc2)C(OC)C1OC (stereo not shown) [Compound 90]
BAW HTS ([1]; 96-well HTS diet bioassay): B (either (1) the compound was tested and less than 50 percent mortality was observed or (2) the compound was not tested)
BAW HTS [1, 3]: B (either (1) the compound was tested and less than 50 percent mortality was observed or (2) the compound was not tested)
BAW 50 ug/cm2 [2]: A (the compound was tested and at least 50 percent mortality was observed)

CO[C@H]1[C@H](C)O[C@H](OC(=O)Nc2ccc(-c3ncn(-c4ccc(OC(F)(F)C(F)(F)F)cc4)n3)cc2)C[C@@H]1OC [Compound 245]
BAW HTS ([1]; 96-well HTS diet assay): B (either (1) the compound was tested and less than 50 percent mortality was observed or (2) the compound was not tested)
BAW HTS [1, 3]: B (either (1) the compound was tested and less than 50 percent mortality was observed or (2) the compound was not tested)
BAW 50 ug/cm2 [2]: A (the compound was tested and at least 50 percent mortality was observed)

CO[C@@H]1[C@@H](OC)[C@H](C)O[C@@H](O/N=C/c2ccc(-n3cnc(-c4ccc(Cl)cn4)n3)cc2)[C@@H]1OC [Compound 69]
BAW HTS ([1]; 96-well HTS diet bioassay): B (either (1) the compound was tested and less than 50 percent mortality was observed or (2) the compound was not tested)
BAW HTS [1, 3]: B (either (1) the compound was tested and less than 50 percent mortality was observed or (2) the compound was not tested)
BAW 50 ug/cm2 [2]: B (either (1) the compound was tested and less than 50 percent mortality was observed or (2) the compound was not tested)

COC1C(C)OC(ON=Cc2ccc(-c3cnc(-c4ccc(OC(F)(F)F)cc4)nc3)cc2)C(OC)C1OC (stereo not shown) [Compound 137]
BAW HTS ([1]; 96-well HTS diet assay): B (either (1) the compound was tested and less than 50 percent mortality was observed or (2) the compound was not tested)
BAW HTS [1, 3]: B (either (1) the compound was tested and less than 50 percent mortality was observed or (2) the compound was not tested)
BAW 50 ug/cm2 [2]: A (the compound was tested and at least 50 percent mortality was observed)

CCO[C@@H]1[C@@H](OC)[C@H](C)O[C@@H](OC(=O)Nc2ccc(-n3c(C(=O)OC)nn(-c4ccc(OC(F)(F)F)cc4)c3=O)cc2)[C@@H]1OC [Compound 226]
BAW HTS ([1]; 96-well HTS diet assay): B (either (1) the compound was tested and less than 50 percent mortality was observed or (2) the compound was not tested)
BAW HTS [1, 3]: B (either (1) the compound was tested and less than 50 percent mortality was observed or (2) the compound was not tested)
BAW 50 ug/cm2 [2]: B (either (1) the compound was tested and less than 50 percent mortality was observed or (2) the compound was not tested)

CCOc1ccc(-n2cnc(-c3ccc(C=NOC4OC(C)C(OC)C(OCC)C4OC)cc3)n2)cc1 (stereo not shown) [Compound 125]
BAW HTS ([1]; 96-well HTS diet bioassay): B (either (1) the compound was tested and less than 50 percent mortality was observed or (2) the compound was not tested)
BAW HTS [1, 3]: B (either (1) the compound was tested and less than 50 percent mortality was observed or (2) the compound was not tested)
BAW 50 ug/cm2 [2]: A (the compound was tested and at least 50 percent mortality was observed)

COC1C(C)OC(ON=Cc2ccc(-c3ccnc(-c4ccc(OC(F)(F)F)cc4)n3)cc2)C(OC)C1OC (stereo not shown) [Compound 139]
BAW HTS ([1]; 96-well HTS diet assay): A (the compound was tested and at least 50 percent mortality was observed)
BAW HTS [1, 3]: A (the compound was tested and at least 50 percent mortality was observed)
BAW 50 ug/cm2 [2]: A (the compound was tested and at least 50 percent mortality was observed)

COC1C(C)OC(ON=Cc2ccc(-c3cn(-c4ccc(C)cc4)cn3)cc2)C(OC)C1OC (stereo not shown) [Compound 41]
BAW HTS ([1]; 96-well HTS diet bioassay): B (either (1) the compound was tested and less than 50 percent mortality was observed or (2) the compound was not tested)
BAW HTS [1, 3]: B (either (1) the compound was tested and less than 50 percent mortality was observed or (2) the compound was not tested)
BAW 50 ug/cm2 [2]: A (the compound was tested and at least 50 percent mortality was observed)

COC1C(C)OC(ON=Cc2ccc(-n3nnc(-c4ccc(C(F)(F)F)cc4)n3)cc2)C(OC)C1OC (stereo not shown) [Compound 131]
BAW HTS ([1]; 96-well HTS diet assay): B (either (1) the compound was tested and less than 50 percent mortality was observed or (2) the compound was not tested)
BAW HTS [1, 3]: B (either (1) the compound was tested and less than 50 percent mortality was observed or (2) the compound was not tested)
BAW 50 ug/cm2 [2]: B (either (1) the compound was tested and less than 50 percent mortality was observed or (2) the compound was not tested)

COC1C(C)OC(ON=Cc2ccc(-c3nn(-c4ccc(OC(F)(F)F)cc4)c(=O)[nH]3)cc2)C(OC)C1OC (stereo not shown) [Compound 101]
BAW HTS ([1]; 96-well HTS diet bioassay): B (either (1) the compound was tested and less than 50 percent mortality was observed or (2) the compound was not tested)
BAW HTS [1, 3]: B (either (1) the compound was tested and less than 50 percent mortality was observed or (2) the compound was not tested)
BAW 50 ug/cm2 [2]: A (the compound was tested and at least 50 percent mortality was observed)

CO[C@@H]1[C@@H](OC)[C@H](C)O[C@@H](OC(=O)Nc2ccc(-c3ccnc(-c4ccc(C(F)(F)F)cc4)n3)cc2)[C@@H]1OC [Compound 232, {4-[2-(4-trifluoromethylphenyl)-pyrimidin-4-yl]-phenyl}-carbamic acid (2S,3R,4R,5S,6S)-3,4,5-trimethoxy-6-methyl-tetrahydropyran-2-yl ester]
BAW HTS [1, 3]: A (the compound was tested and at least 50 percent mortality was observed)
pest or weed control at 12 µg/well, 12 µg/well ([1]; Spodoptera exigua, 144 h, read-out: BAW HTS): > 50%
BAW 50 ug/cm2 [2]: A (the compound was tested and at least 50 percent mortality was observed)
pest or weed control at 50 µg/cm2, 50 µg/cm2 ([2]; Spodoptera exigua, 144 h, read-out: BAW 50 ug/cm2): > 50%

CCO[C@@H]1[C@@H](OC)[C@H](C)O[C@@H](OC(=O)Nc2ccc(-c3nc(C(F)(F)F)n(-c4ccc(OC(F)(F)F)cc4)n3)cc2)[C@@H]1OC [Compound 222]
BAW HTS ([1]; 96-well HTS diet assay): B (either (1) the compound was tested and less than 50 percent mortality was observed or (2) the compound was not tested)
BAW HTS [1, 3]: B (either (1) the compound was tested and less than 50 percent mortality was observed or (2) the compound was not tested)
BAW 50 ug/cm2 [2]: A (the compound was tested and at least 50 percent mortality was observed)

CO[C@@H]1[C@@H](OC)[C@H](C)O[C@@H](OC(=O)Nc2ccc(-c3nnc(-c4ccc(Cl)cc4Cl)o3)cc2)[C@@H]1OC [Compound 230]
BAW HTS ([1]; 96-well HTS diet assay): B (either (1) the compound was tested and less than 50 percent mortality was observed or (2) the compound was not tested)
BAW HTS [1, 3]: B (either (1) the compound was tested and less than 50 percent mortality was observed or (2) the compound was not tested)
BAW 50 ug/cm2 [2]: A (the compound was tested and at least 50 percent mortality was observed)

COC1C(C)OC(ON=Cc2ccc(-c3nc(-c4ccc(C(F)(F)F)cc4)n[nH]3)cc2)C(OC)C1OC (stereo not shown) [Compound 95]
BAW HTS ([1]; 96-well HTS diet bioassay): B (either (1) the compound was tested and less than 50 percent mortality was observed or (2) the compound was not tested)
BAW HTS [1, 3]: B (either (1) the compound was tested and less than 50 percent mortality was observed or (2) the compound was not tested)
BAW 50 ug/cm2 [2]: A (the compound was tested and at least 50 percent mortality was observed)

CCOC1C(OC)C(C)OC(ON=Cc2ccc(N3CCN(c4ccc(OC(F)(F)F)cc4)CC3)nc2)C1OC (stereo not shown) [Compound 160]
BAW HTS ([1]; 96-well HTS diet assay): A (the compound was tested and at least 50 percent mortality was observed)
BAW HTS [1, 3]: A (the compound was tested and at least 50 percent mortality was observed)
BAW 50 ug/cm2 [2]: A (the compound was tested and at least 50 percent mortality was observed)

CCOC1C(OC)C(C)OC(ON=Cc2ccc(-c3ncc(-c4ccc(OC(F)(F)F)cc4)cn3)cc2F)C1OC (stereo not shown) [Compound 148]
BAW HTS ([1]; 96-well HTS diet assay): B (either (1) the compound was tested and less than 50 percent mortality was observed or (2) the compound was not tested)
BAW HTS [1, 3]: B (either (1) the compound was tested and less than 50 percent mortality was observed or (2) the compound was not tested)
BAW 50 ug/cm2 [2]: A (the compound was tested and at least 50 percent mortality was observed)

Source: US8178658B2 (Dow AgroSciences, LLC, priority 2008, dated 2012)
